Source: PMC4726189, “Blocking protein phosphatase 2A signaling prevents endothelial-to-mesenchymal transition and renal fibrosis: a peptide-based drug therapy” (Scientific Reports, 2016)
Each block holds one compound with its values, some of them ahead of it.

Columns and labels:
PP2A [1] = details: inhibition of PP2A by okadaic acid; cited from earlier work
Text: The vast majority of biological processes, including renal fibrosis, are regulated by the balance between the activities of kinases and phosphatases. The significance of kinases has been intensively discussed in kidney disease for decades, however, the roles of phosphatases remain poorly understood. Protein phosphatase 2A (PP2A) is a ubiquitously expressed protein serine/threonine phosphatase that accounts for a large fraction of phosphatase activity in eukaryotic cells. As a heterotrimer, PP2A is composed of three subunits: a catalytic C subunit (PP2Ac), a structural A subunit (PP2Aa) ...

occludin = assay: Serine/threonine phosphorylation of occludin in immunoprecipitates from TGF-β1-treated HUVECs; type: cell-based, human; details: n ≥ 3
Procedure: (§1) Human umbilical vein endothelial cells (HUVECs, ATCC) were cultured in RPMI-1640 (Gibco) supplemented with 10% fetal bovine serum (FBS, HyClone). When 30% confluent, cells were cultured in serum-free medium before recombinant human TGF-β1 (10 ng/ml; Peprotech) treatment. In some experiments, cells were pretreated with PP2A inhibitor OA (10 nM; Sigma) for 1 h before the addition of TGF-β1. For all cell stimulations, n ≥ 3 independent experiments were performed.
Cell lysates were centrifuged at 12,000g for 30 min at 4 °C. Approximately 1 mg of each lysate was incubated overnight at 4 °C with 2 μg of anti-occludin, anti-PP2Ac or IgG antibody (a negative control), followed by incubation with Protein A/G-Agarose for 1 hr to capture immunoprecipitates. Bead complexes were washed four times in lysis buffer and then resuspended in 2 × SDS buffer and heated for 10 min at 90 °C. Lysates were electrophoresed, transferred to PVDF filters, and subsequently immunoblotted with antibodies.

HUVECs [2] = assay: TGF-β1-induced EndMT in HUVECs, western blot of VE-cadherin and α-SMA; type: cell-based, human; details: n ≥ 3
Procedure: as §1
Renal tissues or cells were harvested and centrifuged at 12,000 g to remove cell debris. Protein concentration was measured using a BCA assay kit (Pierce). Eighty micrograms of protein was subjected to SDS-PAGE and transferred onto polyvinylidene difluoride membranes. After transfer, the membranes were blocked and blotted routinely with antibodies against VE-cadherin (BD Biosciences), α-SMA (Abcam), collagen1 (Abcam), PP2Ac (Cell Signaling Technology), occludin (Invitrogen), P-threonine/P-serine (Santa Cruz), nitrotyrosine (Cayman), acetylated-lysine (Cell Signaling Technology), phosphotyrosine (PY-20,Biolgend), PP2A,C subunit, demethylated (Millipore), vimentin (Boster) and CD31 (Proteintech). The immunolabeled proteins were detected by enhanced chemiluminescence (Pierce).The density of the bands was analyzed by Quantity One software (Bio-Rad).

[3] = Whole-body and ex vivo organ fluorescence imaging of FITC-labeled peptide in mice; design: species or system C57/B mice
Procedure: FITC-loaded peptides were injected through the tail vein or intraperitoneally administered into C57/B mice at a dose of 5 nmol/g of body weight. Whole body fluorescence imaging was performed using an in vivo imaging system (IVIS Spectrum, Caliper, USA) at 0, 0.5, 4 or 24 h post-injection. Subsequently, the mice were sacrificed, and their organs such as the liver, spleen, kidneys, heart, and lung were excised and subjected to ex vivo fluorescence imaging. At the same time, 1 mL of blood was drawn from the retro-orbital sinus after injection at different time points.

HUVECs [4] = assay: Cytotoxicity to HUVECs, CCK-8 assay; type: cell-based, human; details: approximately 5–10 μM (0, 1, 5, 10, 20 or 50 μM tested), n=3
Procedure: (§2) Figure S2. The penetration and cytotoxicity of TAT-Y127WT to HUVECs.
(§3) HUVECs were incubated with various concentrations (0,1,5,10,20,or 50μM) of TAT-Y127WT. Cytotoxicity was measured with the CCK-8 assay. (c)
(§4) Immunofluorescence distribution of TAT-Y127WT and cell morphology. Nuclei were counterstained with DAPI (blue). n=3. Scale bars, 20μm.
(§5) Supplementary Methods: Mass Spectrometry Experiments
(§6) Protein Digestion-The protein bands were digested according to an in-gel digestion procedure. The gels were dried in a vacuum centrifuge. Briefly, the in-gel proteins were reduced with dithiothreitol (10 mM DTT/100 mM NH4HCO3 ) for 30 min at 56°C, then alkylated with iodoacetamide (200 mM IAA/100 mM NH4HCO3) in the dark at room temperature for 30 minutes. Gel pieces were briefly rinsed with 100 mM NH4HCO3 and ACN. Gel pieces were digested overnight in 12.5 ng/μl trypsin in 25 mM NH4HCO3. The peptides were extracted three times with 60% ACN/0.1% TFA.
The extracts were pooled and dried completely by a vacuum centrifuge.
Identification of the Modification Sites-Experiments were performed on a Q Exactive mass spectrometer that was coupled to Easy nLC (Proxeon Biosystems, now Thermo Fisher Scientific). Approximately 3 μl of the sample was injected for nanoLC-MS/MS analysis. The peptide mixture (1 μg) was loaded onto the C18-reversed phase column
(1 picture or pasted object on this page, not shown here)

HUVECs [5] = assay: Cellular uptake of FITC-labeled peptide in HUVECs; type: cell-based, human; details: fluorescence, n=3
Procedure: To further confirm the hypothesis, PP2Ac mimic peptides (Y127WT,Y130WT,Y265WT, Y267WT,Y284WT) were designed to assess the significance of Tyr127 and other Tyr sites on TGF-β1-driven EndMT. To enhance the penetration of synthetic peptides, a cell-permeable peptide transactivator of transcription (TAT) was used[20][21]. The conjugated peptide TAT-Y127WT was labeled with fluorescein isothiocyanate (FITC) and analyzed for cellular uptake. […] Thus, at the dose of 10 μM, we investigated the anti-EndMT effects of TAT-Y127WT compared with the other four peptides.
as §2, §3, §4, §5
as §6, with “Gel pieces were digested overnight in 12.5 ng/μl trypsin in 25 mM NH4HCO3. The peptides were extracted three times with 60% ACN/0.1% TFA.” left out

Caco-2 Cells = details: cited from earlier work
Text: (§7) Therefore, blocking PP2Ac Tyr127 nitration is considered a potential therapeutic approach. […] Peptide-based drugs have garnered much attention because of their high potencies of action and relatively few off-target side-effects[52][53].

PP2A [6] = details: cited from earlier work
Text: as §7

[7] = OA 10 nM for 1 h before TGF-β1 10 ng/ml
[8] = FITC-labeled peptide, tail vein injection, ex vivo organ imaging at different time points

Procedure for UUO mice: Mice aged 6–8 weeks were grouped as sham-operated, UUO, UUO +TAT-Y127WT and UUO + TAT-Y127Scr and tail vein injected 1d before surgery. To perform UUO surgery, mice were anesthetized with ketamine hydrochloride (80 mg/kg body weight, intraperitoneally) before surgery and the left kidney was exposed through a flank incision and the left ureter tied off at the level of the lower pole of the kidney with two 4.0 silk ties. All mice were euthanized at the end of the experiments after obstruction, and some kidney tissues were fixed with 4% paraformaldehyde. The remainder was frozen in liquid nitrogen for later use.
Four-micrometer-thick paraffin sections were incubated with primary antibodies overnight at 4 °C and were then incubated with biotinylated goat anti-rabbit IgG or goat anti-mouse IgG for 45 min followed by diaminobenzidine (DAKO) staining. All sections were examined under a light microscope (Olympus BX-50) and digitized with a high-resolution camera. For immunofluorescence studies, after incubated with primary antibody, sections (including serial sections) were incubated with FITC- or CY3-conjugated goat antibody (Jackson ImmunoResearch) for 45 min at 37 °C and then counterstained with DAPI (Vector Laboratories) and analyzed by confocal laser scanning microscopy. 3D reconstructed technology was based on confocal laser-scanning microscopy and analyzed by the software (LAS-AF-Lite 2.6.3). PTC density was analyzed as described with some modifications[56].

Compound: C=C1[C@@H](O)[C@@H]2O[C@]3(CC[C@H](/C=C/[C@@H](C)[C@@H]4CC(C)=C[C@@]5(O[C@H](C[C@@](C)(O)C(=O)O)CC[C@H]5O)O4)O3)CC[C@H]2O[C@@H]1[C@@H](O)C[C@H](C)[C@H]1O[C@@]2(CCCCO2)CC[C@H]1C [OA, okadaic acid, reference compound]
effect of PP2A on thrombin- or nocodazole-induced changes in EC cytoskeleton (PP2A [1]): abolished
TGF-β1-induced decrease of phosphorylated serine and threonine residues in occludin immunoprecipitates (occludin; pretreatment with OA 10 nM for 1 h): significantly dampened
VE-cadherin expression (HUVECs [2]; [7]): maintained
α-SMA expression induced by TGF-β1 (HUVECs [2]; [7]): markedly attenuated

time to disappearance of the fluorescence signal after injection ([3]; FITC-labeled peptide 5 nmol/g intravenously, whole-body imaging at 0, 0.5, 4, 24 h and blood samples (n = 6)): ≤ 24 h
fluorescence in heart and lung [3, 8]: small signal
fluorescence in kidney and liver [3, 8]: strongly detected
fluorescence in spleen [3, 8]: no signal
cell transduction (HUVECs [5]; 10 μM): effectively transduces cells
cell penetration (HUVECs [5]; FITC-labeled peptide, approximately 5–10 μM): efficient cell penetration
Compound: ITQVYGFYD [TAT-Y127WT]
serine and threonine phosphorylation of occludin (occludin; TGF-β1, 72 h, compared with TAT-Y127Scr treatment): significantly increased
cytotoxicity to HUVECs (HUVECs [4]): low cytotoxicity
potency to inhibit TGF-β1-induced VE-cadherin decrease and α-SMA increase (HUVECs [2]; peptide 10 μM, TGF-β1, 72 h, compared with the other four peptides): higher potency
increase of α-SMA (HUVECs [2]; pretreatment with peptide, TGF-β1, 72 h): inhibited
density of peritubular capillaries (UUO mice; 5 nmol/g per day, CD31+ PTC numbers per visual field, n = 8): preserved density
number of CD31+/α-SMA+ areas in the interstitium (EndMT level) (UUO mice; 5 nmol/g per day, confocal microscopy, n = 8): dramatically decreased
excessive extracellular matrix (ECM) production, α-SMA and vimentin deposition (UUO mice; 5 nmol/g per day, immunohistochemical staining, n = 8): attenuated
PP2Ac nitration (UUO mice; administration of the peptide): significantly reduces

Compound: TPDYFL
acetaldehyde-induced tight junction disruption and barrier dysfunction (Caco-2 Cells): prevented
PP2A translocation in cardiac myocytes (PP2A [6]): attenuate
